For test [1], the target named is T1, ToCDS (cysteine desulfurase, CDS) (Thermococcus onnurineus, UniProt B6YT87).
T1 construct: gene TON_0289; full length, 399 residues, N-terminal 7xHis-TEV tag (cleavage not mentioned), E. coli BL21(DE3), about 44 kDa, homodimer; PLP on Lys216, catalytic Cys356; EC 2.8.1.7; primers encode N-terminus MIPEDV and C-terminus KGLKT
In words: X-ray crystallography. In kind it is binding. From the text:
X-ray crystallography on ToCDS (cysteine desulfurase, CDS) | PLP was Schiff-base linked with […] at the active site. | the alanine was tightly bound: the conserved […] side chain had bifurcated hydrogen bonds

Test [2] deals with cysteine desulfurase from Thermococcus onnurineus NA1 (Thermococcus onnurineus NA1). In words: crystal structure; ToCDS alone (crystal I, NAT, 2.6 Å, space group P212121), a dimer in the asymmetric unit; crystals II-IV soaked or co-crystallised with 5 mM L-cysteine and 1 mM PLP, each with protomers A and B.

T1 sequence (B6YT87 entry or part of it): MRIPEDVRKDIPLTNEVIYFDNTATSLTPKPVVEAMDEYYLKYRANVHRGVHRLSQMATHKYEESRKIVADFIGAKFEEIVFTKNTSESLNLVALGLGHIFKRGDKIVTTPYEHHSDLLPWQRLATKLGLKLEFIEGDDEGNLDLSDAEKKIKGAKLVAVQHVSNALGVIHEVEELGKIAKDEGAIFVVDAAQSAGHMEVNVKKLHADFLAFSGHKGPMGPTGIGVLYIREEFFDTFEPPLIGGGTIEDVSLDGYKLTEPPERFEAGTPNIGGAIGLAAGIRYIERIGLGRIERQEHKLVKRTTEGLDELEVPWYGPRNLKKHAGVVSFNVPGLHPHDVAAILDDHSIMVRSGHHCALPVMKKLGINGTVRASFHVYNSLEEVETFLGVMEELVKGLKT

Turning to `Cc1ncc(COP(=O)(O)O)c(C=O)c1O` [PLP, pyridoxal 5′-phosphate], the X-ray crystallography entry in test [1] (covalent, internal aldimine Schiff base with Lys216, native crystal I, 2.6 Å, pH 8.5) is “PLP was Schiff-base linked with Lys216 at the active site”. `C[C@H](N)C(=O)O` [alanine]: in test [1] (crystal III 1.5 Å (protomer A: unbonded alanine, internal aldimine; protomer B: gem-diamine) and crystal II 2.3 Å (gem-diamine, covalent to PLP), from L-cysteine and PLP by cocrystallization or soakin), the X-ray crystallography result is “the alanine was tightly bound: the conserved Arg371 side chain had bifurcated hydrogen bonds”. As a reminder, the stoichiometry N is the number of molecules, sites or subunits per partner or assembly. “cysteine desulfurase from Thermococcus onnurineus NA1 (enzyme)” registered a stoichiometry N in test [2] of 2.
